Reference: EP2929785A1, “A PLA inhibitor for inhibition of fat absorption” (PAT GmbH, priority 2014, dated 2015)
One block for each molecule: values may come before it. Peptide text beside a SMILES is read from it. * marks the point of attachment. Cbz = O=C(OCc1ccccc1)*

How the values were obtained:
cytosolic LPC = experiment: Cytosolic LPC concentration in HepG2 cells; type: cell-based, human; details: Homo sapiens, HepG2, 0.5 h; 30 min treatment (Fig. 7); read-out: suppression of cytosolic LPC (IC50)
Procedure: LPC concentration in cytosolic supernatants was measured as previously described (Kishimoto T et al. Clin. Biochem. 2002; 35: 411-416).

HepG2 cells [1] = experiment: Fatty acid ([3H]oleate:albumin) influx in HepG2 cells; type: cell-based, human
[2] = biological target: T1, organic anion-transporting polypeptide 1 in HepG2 cells (Homo sapiens, UniProt P46721); details: uptake by HepG2 cells; Chamulitrat et al. 2009; read-out: half-maximal inhibitory concentration (IC50) for competition with UDCA-LPE uptake; cited from earlier work
T1 construct: host or cells: HepG2 (endogenous)
T1 sequence (P46721 1-670): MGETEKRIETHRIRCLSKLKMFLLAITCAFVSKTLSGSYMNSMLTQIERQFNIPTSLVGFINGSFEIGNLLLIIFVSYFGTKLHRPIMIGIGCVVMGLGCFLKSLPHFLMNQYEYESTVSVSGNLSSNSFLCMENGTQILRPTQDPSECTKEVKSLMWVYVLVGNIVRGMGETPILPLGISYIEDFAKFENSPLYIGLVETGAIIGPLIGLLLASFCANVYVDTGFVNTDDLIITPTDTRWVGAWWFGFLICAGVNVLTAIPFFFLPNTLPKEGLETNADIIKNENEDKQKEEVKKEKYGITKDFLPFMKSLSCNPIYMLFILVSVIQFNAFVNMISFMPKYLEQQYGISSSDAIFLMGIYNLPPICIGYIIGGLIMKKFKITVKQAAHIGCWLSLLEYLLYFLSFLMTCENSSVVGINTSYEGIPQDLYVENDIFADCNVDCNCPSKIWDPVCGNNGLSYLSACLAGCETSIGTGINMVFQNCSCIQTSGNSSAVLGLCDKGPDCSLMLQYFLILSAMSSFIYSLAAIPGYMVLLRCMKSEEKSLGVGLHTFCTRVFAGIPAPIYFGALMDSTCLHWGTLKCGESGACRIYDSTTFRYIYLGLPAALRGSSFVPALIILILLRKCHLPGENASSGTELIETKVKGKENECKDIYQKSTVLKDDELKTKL

[3] = system: DRM-PM proteins iPLA2ß, CD36, FABPPM, caveolin1; experiment: DRM-PM protein levels in HepG2 cells by semi-quantitative densitometry; type: cell-based, human; details: bafilomycin 50 nM, 16 h
[4] = system: transcripts of all complex subunits; experiment: In vitro transcription in native HepG2 nuclear extracts exposed to LPC-conditioned delipidated cytosol; type: biochemical, human; details: delipidated cytosol incubated with LPC 1 h
HepG2 cells [5] = experiment: [3H]glucose influx in HepG2 cells; type: cell-based, human; details: at 10 mM glucose; MßCD

- IC50 (cytosolic LPC): 43 µM
- IC50 (HepG2 cells [1]; Homo sapiens, HepG2, 1-h treatment with increasing concentrations (Fig. 2A), read-out: inhibition of fatty acid influx (IC50)): 52 µM
Molecule: O=C1O/C(=C/Br)CCC1c1cccc2ccccc12 (stereo not shown) [BEL, bromoenol lactone, reference compound]

Molecule: CC(C)C[C@@H](C=O)NC(=O)[C@H](CC(C)C)NC(=O)[C@H](CC(C)C)NC(=O)OCc1ccccc1 [MG132, reference compound] (Cbz-Leu-Leu-Leu-aldehyde)
- effect on fatty acid uptake (HepG2 cells [1]): no effect on uptake

Molecule: O=C([O-])[C@H](O)[C@@H](O)[C@H](O)[C@H](O)CO.[Na+] [Na-gluconate, reference compound]
- passive translocation component of fatty acid influx (HepG2 cells [1]): inhibited to negligible levels

Molecule: C[C@H](CCC(=O)O)[C@H]1CC[C@H]2[C@@H]3[C@@H](O)C[C@@H]4C[C@H](O)CC[C@]4(C)[C@H]3CC[C@]12C [UDCA, ursodeoxycholic acid]
- IC50 [2]: 20 µM

Molecule: CO/C1=C\C(C)=C\[C@@H](C)[C@@H](O)[C@@H](C)C/C(C)=C/C=C/[C@H](OC)[C@@H]([C@@H](C)[C@@H](O)[C@H](C)[C@@]2(O)C[C@@H](O)[C@H](C)[C@@H](C(C)C)O2)OC1=O [bafilomycin]
- increase in DRM-PM CD36 [3]: 40.85 ± 10.56%
- increase in DRM-PM FABPPM [3]: 25.99 ± 3.35%
- increase in DRM-PM caveolin1 [3]: 60.76 ± 7.03%
- increase in DRM-PM iPLA2ß [3]: 51.56 ± 9.85%
- fatty acid influx (HepG2 cells [1]; bafilomycin 50 nM, 16 h, untreated 26.95 ± 2.4): 33.33 ± 5.1 nmol/mg protein/min

Molecule: lysophosphatidylcholine [LPC]
- LPC concentration at which the transcripts of all complex subunits were downregulated [4]: 5 µmol/mg protein

Molecule: methyl-beta-cyclodextrin [MßCD, reference compound]
- influx of [3H]glucose (HepG2 cells [5]): 135.70 ± 14.7 nmol/mg protein/min
- additional reduction of fatty acid influx (HepG2 cells [1]): 60%
